Key:
[1] = target: myosin V (S1) 1IQ construct (Gallus gallus, UniProt Q02440); type: binding
[2] = target: myosin V (S1) 6IQ construct (Gallus gallus, UniProt Q02440); type: binding
Sequence of myosin V (S1) 6IQ construct (Q02440 whole entry, looked up): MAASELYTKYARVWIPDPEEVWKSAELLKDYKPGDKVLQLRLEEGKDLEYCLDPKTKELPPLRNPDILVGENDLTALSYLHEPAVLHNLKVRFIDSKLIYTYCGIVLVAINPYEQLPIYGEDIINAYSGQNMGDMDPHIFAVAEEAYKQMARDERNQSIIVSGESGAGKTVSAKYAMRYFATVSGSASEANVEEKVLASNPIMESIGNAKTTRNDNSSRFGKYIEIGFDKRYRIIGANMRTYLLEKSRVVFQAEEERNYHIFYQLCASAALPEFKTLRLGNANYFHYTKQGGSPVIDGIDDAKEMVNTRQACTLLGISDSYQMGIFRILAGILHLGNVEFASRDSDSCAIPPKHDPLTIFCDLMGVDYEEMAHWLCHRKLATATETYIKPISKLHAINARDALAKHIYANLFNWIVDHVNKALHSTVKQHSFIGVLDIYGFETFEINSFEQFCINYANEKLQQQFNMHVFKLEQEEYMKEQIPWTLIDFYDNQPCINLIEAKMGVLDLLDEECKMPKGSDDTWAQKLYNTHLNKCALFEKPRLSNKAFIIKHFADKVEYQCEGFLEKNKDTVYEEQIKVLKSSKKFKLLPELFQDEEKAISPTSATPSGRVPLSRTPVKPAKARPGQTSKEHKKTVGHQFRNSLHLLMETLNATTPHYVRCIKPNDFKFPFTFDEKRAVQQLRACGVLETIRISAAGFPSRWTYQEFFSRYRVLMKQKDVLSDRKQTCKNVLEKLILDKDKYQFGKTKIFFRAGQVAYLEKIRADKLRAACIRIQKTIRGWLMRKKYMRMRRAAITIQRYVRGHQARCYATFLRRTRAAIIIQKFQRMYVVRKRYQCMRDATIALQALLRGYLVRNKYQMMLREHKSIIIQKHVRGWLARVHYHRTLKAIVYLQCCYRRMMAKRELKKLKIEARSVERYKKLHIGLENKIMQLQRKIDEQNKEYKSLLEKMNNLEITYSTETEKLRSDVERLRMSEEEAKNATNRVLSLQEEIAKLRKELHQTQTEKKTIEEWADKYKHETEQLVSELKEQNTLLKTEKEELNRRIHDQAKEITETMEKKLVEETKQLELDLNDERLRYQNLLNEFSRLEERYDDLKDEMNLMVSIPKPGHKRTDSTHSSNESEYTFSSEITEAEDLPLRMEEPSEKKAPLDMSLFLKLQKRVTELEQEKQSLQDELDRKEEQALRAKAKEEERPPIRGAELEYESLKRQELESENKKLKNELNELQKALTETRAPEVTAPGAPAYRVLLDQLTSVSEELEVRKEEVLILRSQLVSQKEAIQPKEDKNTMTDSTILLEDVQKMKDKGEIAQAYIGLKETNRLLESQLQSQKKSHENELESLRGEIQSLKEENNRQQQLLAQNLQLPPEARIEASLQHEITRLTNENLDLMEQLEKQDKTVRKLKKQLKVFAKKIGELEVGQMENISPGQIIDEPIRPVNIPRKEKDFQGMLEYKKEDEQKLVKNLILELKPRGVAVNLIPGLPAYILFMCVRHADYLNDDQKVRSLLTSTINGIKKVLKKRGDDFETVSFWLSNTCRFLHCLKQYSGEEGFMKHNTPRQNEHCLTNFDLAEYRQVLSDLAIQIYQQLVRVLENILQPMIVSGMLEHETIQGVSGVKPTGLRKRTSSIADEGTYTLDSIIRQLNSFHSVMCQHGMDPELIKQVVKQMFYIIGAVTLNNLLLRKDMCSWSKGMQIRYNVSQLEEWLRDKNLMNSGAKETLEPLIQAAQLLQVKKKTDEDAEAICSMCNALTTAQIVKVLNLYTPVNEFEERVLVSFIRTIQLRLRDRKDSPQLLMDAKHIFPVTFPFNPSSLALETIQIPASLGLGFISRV

Sequence of myosin V (S1) 1IQ construct (Q02440 whole entry, looked up): as above

- Kd [1]: 2400 ± 1700 nM
- Kd [2]: ~1000 nM
Compound: Nc1ncnc2c1ncn2[C@@H]1O[C@H](COP(=O)(O)OP(=O)(O)O)[C@@H](O)[C@H]1O [ADP]

— paper PMC2917589 (Nature chemical biology, 2010)
